Experimental data reported in PubChem BioAssay (NCI).
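48-hour exposure; five concentrations; linearly interpolated endpoints. GI50 marks 50% less growth. TGI: total growth inhibition.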

Experiments:
Assay in all cases: NCI tumour cell line growth inhibition, 48 h
NCI-H226 lung = test system: NCI-H226 lung
SF-268 CNS = test system: SF-268 CNS
MALME-3M melanoma = test system: MALME-3M melanoma
OVCAR-5 ovarian = test system: OVCAR-5 ovarian
SK-MEL-5 melanoma = test system: SK-MEL-5 melanoma
KM12 colon = test system: KM12 colon
MDA-MB-231 breast = test system: MDA-MB-231 breast
OVCAR-3 ovarian = test system: OVCAR-3 ovarian
SF-539 CNS = test system: SF-539 CNS
SR leukemia = test system: SR leukemia

Structure (SMILES) | GI50 (NCI-H226 lung) | TGI (NCI-H226 lung) | GI50 (SF-268 CNS) | TGI (SF-268 CNS) | GI50 (MALME-3M melanoma) | TGI (MALME-3M melanoma) | GI50 (OVCAR-5 ovarian) | TGI (OVCAR-5 ovarian) | GI50 (SK-MEL-5 melanoma) | TGI (SK-MEL-5 melanoma) | GI50 (KM12 colon) | TGI (KM12 colon) | GI50 (MDA-MB-231 breast) | TGI (MDA-MB-231 breast) | GI50 (OVCAR-3 ovarian) | TGI (OVCAR-3 ovarian) | GI50 (SF-539 CNS) | TGI (SF-539 CNS) | GI50 (SR leukemia) | TGI (SR leukemia)
COc1ccc(C(=O)N2c3ccccc3Sc3ccccc32)c(OC)c1 | 0.843 µM | > 100 µM | 0.853 µM | > 100 µM | 0.416 µM | > 100 µM | 10 µM | > 100 µM | 0.408 µM | > 100 µM | 0.438 µM | > 100 µM | 0.83 µM | > 100 µM | 0.322 µM | 1.14 µM | 0.333 µM | 4.37 µM | 0.562 µM | > 100 µM
O=C(O)COc1c(Cl)cc(Cl)c2cccnc12 | – | > 100 µM | – | > 100 µM | – | > 100 µM | – | > 100 µM | – | > 100 µM | – | > 100 µM | – | > 100 µM | – | > 100 µM | – | > 100 µM | – | > 100 µM
CC1=CC(=O)C(O)C2(C)C1CC(O)C13COC4(C)C(OC(=O)C41)C(O)C23 (stereo not drawn) | 3.48 µM | 21.2 µM | 12.6 µM | 52.5 µM | 10.1 µM | 37.4 µM | 20.5 µM | 78.3 µM | 5.06 µM | 21.2 µM | 7.41 µM | 33.6 µM | 15.4 µM | 43.9 µM | 19.5 µM | 62.9 µM | 8.13 µM | 35.5 µM | 0.688 µM | 6.46 µM
Cc1nc2ccccc2c(/C=C/c2ccc(Br)cc2)c1C(=O)/C=C/c1ccccc1 | 1.67 µM | 3.35 µM | 2.14 µM | 6.38 µM | 1.7 µM | 3.12 µM | 1.84 µM | 3.37 µM | 1.72 µM | 3.11 µM | 1.95 µM | 4.37 µM | 1.84 µM | 3.94 µM | 1.52 µM | 3.14 µM | 1.76 µM | 3.2 µM | 1.24 µM | 6.6 µM
CSC(=S)N/N=C(\C)c1cccc(C)n1 | – | 10.7 µM | – | 46.7 µM | – | 10 µM | – | 86.5 µM | – | 8.56 µM | – | 42.6 µM | – | 36.4 µM | – | 1.99 µM | – | 7.34 µM | – | > 65.6 µM
C#CCOc1cccc(Nc2ncnc3c(NC(=O)CCl)cccc23)c1 | 33.4 µM | > 100 µM | 15.7 µM | 36.4 µM | 16.1 µM | 35 µM | 21.3 µM | 57 µM | 14 µM | 27.2 µM | 17.4 µM | 37.8 µM | 22.9 µM | 61 µM | 16.5 µM | 31.7 µM | 16.6 µM | 31.3 µM | 6.06 µM | 31.7 µM
CC(C)(C)c1ccc(C(=O)Nc2sc3c(c2C(N)=O)CCC(=O)C3)cc1 | 1.53 µM | 3.43 µM | 1.11 µM | 3.61 µM | 0.906 µM | 2.66 µM | 1.49 µM | 3.82 µM | 1.53 µM | 2.96 µM | 0.55 µM | 2.34 µM | 0.999 µM | 2.63 µM | 0.426 µM | 1.52 µM | 0.438 µM | 1.61 µM | 0.363 µM | 10.1 µM
CN(CCCCCl)P(=O)(OCCS(=O)(=O)CC(NC(=O)CCC(N)C(=O)O)C(=O)NC(C(=O)O)c1ccccc1)OCC1OC(n2cc(F)c(=O)[nH]c2=O)CC1O (stereo not drawn) | 0.628 µM | > 100 µM | < 0.01 µM | – | 8.98 µM | > 72.2 µM | > 27.4 µM | > 100 µM | 0.989 µM | 15.9 µM | 13.3 µM | > 78 µM | 8.96 µM | 68.6 µM | 1.22 µM | > 84.4 µM | < 0.0105 µM | 7.74 µM | – | > 90.9 µM
c1ccc2c3c([nH]c2c1)C1CCCN1CC3 (stereo not drawn) | – | > 10 µM | – | > 10 µM | – | > 10 µM | – | > 10 µM | – | > 10 µM | – | > 10 µM | – | > 10 µM | – | > 10 µM | – | > 10 µM | – | > 10 µM
C[CH2][Pb]([CH2]C)([CH2]C)[O]C(=O)c1ccc2ccccc2n1 | > 10 µM | > 10 µM | > 10 µM | > 10 µM | > 10 µM | > 10 µM | > 10 µM | > 10 µM | > 10 µM | > 10 µM | > 10 µM | > 10 µM | > 10 µM | > 10 µM | > 10 µM | > 10 µM | > 10 µM | > 10 µM | > 10 µM | > 10 µM
COc1ccc2cc(-c3c(-c4ccncc4)nc(-c4ccc(S(C)=O)cc4)n3C)ccc2c1 (stereo not drawn) | > 9.95 µM | > 25 µM | > 25 µM | > 25 µM | 24.5 µM | > 25 µM | > 25 µM | > 25 µM | 5.58 µM | > 21.2 µM | > 24.1 µM | > 25 µM | > 25 µM | > 25 µM | 15.3 µM | > 25 µM | > 25 µM | > 25 µM | > 25 µM | > 25 µM
CC1(C)CCC[C@]2(C)[C@@H](C=O)C(C=O)=CC[C@@H]12 | – | 56.1 µM | – | 55.8 µM | – | 32 µM | – | 33.2 µM | – | 29 µM | – | 31.5 µM | – | 23.1 µM | – | 28 µM | – | 53.3 µM | – | 44.5 µM
Nc1ccccc1SCc1csc(-c2ccc(Cl)cc2)n1 | – | 62.5 µM | – | > 100 µM | – | 47 µM | – | > 95.2 µM | – | 28.7 µM | – | 47.4 µM | – | 54.6 µM | – | > 67.6 µM | – | 53.2 µM | – | 29.9 µM
CN1CCC(n2cnc(-c3ccc(F)cc3)c2-c2ccnc(N)n2)CC1 | 10.9 µM | > 25 µM | 10.4 µM | > 25 µM | 8.77 µM | > 25 µM | 13.8 µM | > 25 µM | 11.6 µM | > 25 µM | 8.64 µM | > 25 µM | 13.5 µM | > 25 µM | 11 µM | > 25 µM | 14.2 µM | > 25 µM | 10.4 µM | > 25 µM
Cn1cncc1CC1COC(=O)C1C(O)c1ccccc1 (stereo not drawn) | – | > 100 µM | – | > 100 µM | – | > 100 µM | – | > 100 µM | – | > 100 µM | – | > 100 µM | – | > 100 µM | – | > 100 µM | – | > 100 µM | – | > 100 µM
CCOc1nc(N)nc(C)c1N=Nc1ccc(Cl)cc1 | – | > 100 µM | – | > 100 µM | – | > 100 µM | – | > 100 µM | – | > 100 µM | – | > 100 µM | – | > 100 µM | – | > 100 µM | – | > 100 µM | – | 23.9 µM
Cn1cc(-c2nonc2-c2cn(C)c3ccccc23)c2ccccc21 | 3.25 µM | > 100 µM | 1.6 µM | > 100 µM | 1.06 µM | > 100 µM | 4.51 µM | > 100 µM | 1.34 µM | > 100 µM | 0.661 µM | > 100 µM | 1.35 µM | > 100 µM | 0.402 µM | 3.42 µM | 0.559 µM | 2.19 µM | 0.406 µM | > 100 µM
CN(CC(N)=O)C(=O)N(CCCl)N=O | – | > 100 µM | – | > 100 µM | – | > 100 µM | – | > 100 µM | – | > 100 µM | – | > 100 µM | – | > 100 µM | – | > 100 µM | – | > 100 µM | – | > 100 µM
CC(C)(C)CN1CCn2c(nc3c(N)nccc32)S1 | 37.2 µM | > 100 µM | 12.5 µM | 34.9 µM | 7.72 µM | 41.3 µM | 12.9 µM | 42 µM | 14.5 µM | 31.1 µM | 4.23 µM | 17.1 µM | 19.8 µM | > 100 µM | 12.3 µM | 29.3 µM | 18.2 µM | 78.9 µM | 3.24 µM | 47.4 µM
